This note sets out measurements from patent US8507494B2, “Heterocyclic quinolizine derived M1 receptor positive allosteric modulators” (Merck Sharp & Dohme Corp., priority 2010, dated 2013).

The target in this test is T1, acetylcholine muscarinic M1 receptor (Homo sapiens, UniProt P11229).
T1 construct: expressed in transfected cells; host or cells: CHOnfat cells (CHOnfat/hM1)
T1 sequence (P11229 1-460): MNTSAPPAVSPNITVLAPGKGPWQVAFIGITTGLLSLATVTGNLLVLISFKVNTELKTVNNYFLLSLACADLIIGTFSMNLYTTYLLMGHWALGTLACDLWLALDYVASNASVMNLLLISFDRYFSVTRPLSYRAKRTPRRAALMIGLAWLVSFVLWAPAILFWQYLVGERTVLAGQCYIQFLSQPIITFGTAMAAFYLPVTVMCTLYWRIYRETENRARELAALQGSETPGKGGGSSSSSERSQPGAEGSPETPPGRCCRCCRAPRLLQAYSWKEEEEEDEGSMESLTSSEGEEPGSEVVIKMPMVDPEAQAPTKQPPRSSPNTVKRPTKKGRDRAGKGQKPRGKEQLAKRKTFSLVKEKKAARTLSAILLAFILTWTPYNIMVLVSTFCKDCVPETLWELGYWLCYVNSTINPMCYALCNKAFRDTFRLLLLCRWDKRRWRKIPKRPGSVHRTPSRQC
Briefly: FLIPR intracellular calcium assay for M1 receptor positive allosteric modulator activity. It counts as cell-based. Particulars: inflection point from FLIPR values; CHOnfat/hM1 cells; 4 min preincubation, then EC20 acetylcholine (3 nM final); read-out: M1 IP Value. Here is the method: The assay studies the effect of one or several concentrations of test compounds on basal or acetylcholine-stimulated Ca^2+ levels using FLIPR.
Compounds are prepared and subjected to a preincubation period of 4 min. Thereafter, a single EC20 concentration of acetylcholine is added to each well (3 nM final). The intracellular Ca^2+ level of each sample is measured and compared to an acetylcholine control to determine any modulatory activity.
Cells: CHOnfat/hM1, hM2, hM3 or hM4 cells are plated 24 hr before the assay at a density of 18,000 cells/well (100 μL) in a 384 well plate. CHOnfat/hM1 and CHOnfat/hM3 Growth Medium: 90% DMEM (Hi Glucose); 10% HI FBS; 2 mM L-glutamine; 0.1 mM NEAA; Pen-Strep; and […] Geneticin, are added. For M2Gqi5CHOnfat and M4Gqi5CHOnfat cells, an additional 600 ug/ml hygromycin is added.
Equipment: 384 well plate, 120 μL addition plate; 96-well Whatman 2 ml Uniplate Incubator, 37° C., 5% CO2; Skatron EMBLA-384 Plate Washer; Multimek Pipetting System; Genesis Freedom 200 System; Mosquito System; Temo Nanolitre Pipetting System; and FLIPR^384 Fluorometric Imaging Plate Reader System are used.
Buffers. […]
After 60 min, the cells are washed three times with 100 μL of buffer, leaving 30 μL of buffer in each well. […] A signal test to check background fluorescence and basal fluorescence signal is performed. […]
(In general: Calcium assays in cells follow changes in intracellular calcium, usually with a dye or a luminescent sensor.)

pEC50: −log10 of the molar value.

As for `Cc1ccnc(C2(C#N)CCN(Cc3cc4c(=O)n(-c5ccccc5F)nc-4n4ccccc34)CC2)c1` [Example 1, 1-{[2-(2-Fluorophenyl)-3-oxo-2,3-dihydropyrazolo[4,3-c]quinolizin-5-yl]methyl}-4-(4-methylpyridin-2-yl)piperidine-4-carbonitrile], the pEC50 is 6.76.
Next, `Cn1cc(N2CCN(Cc3cc4c(=O)n(-c5ccccc5F)nc-4n4ccccc34)CC2=O)cn1` [Example 2, 2-(2-Fluorophenyl)-5-{[4-(1-methyl-1H-pyrazol-4-yl)-3-oxopiperazin-1-yl]methyl}pyrazolo[4,3-c]quinolizin-3(2H)-one]: 6.49.
